Laboratory results published in patent publication US20260191968A1, “PROTAC DEGRADERS OF MLLT1 AND/OR MLLT3” (DARK BLUE THERAPEUTICS LTD, priority 2024, published 2026).

Target: T1, MLLT1 (Homo sapiens, UniProt Q03111)
T1 construct: host or cells: MV4-11
T1 sequence (Q03111 1-559): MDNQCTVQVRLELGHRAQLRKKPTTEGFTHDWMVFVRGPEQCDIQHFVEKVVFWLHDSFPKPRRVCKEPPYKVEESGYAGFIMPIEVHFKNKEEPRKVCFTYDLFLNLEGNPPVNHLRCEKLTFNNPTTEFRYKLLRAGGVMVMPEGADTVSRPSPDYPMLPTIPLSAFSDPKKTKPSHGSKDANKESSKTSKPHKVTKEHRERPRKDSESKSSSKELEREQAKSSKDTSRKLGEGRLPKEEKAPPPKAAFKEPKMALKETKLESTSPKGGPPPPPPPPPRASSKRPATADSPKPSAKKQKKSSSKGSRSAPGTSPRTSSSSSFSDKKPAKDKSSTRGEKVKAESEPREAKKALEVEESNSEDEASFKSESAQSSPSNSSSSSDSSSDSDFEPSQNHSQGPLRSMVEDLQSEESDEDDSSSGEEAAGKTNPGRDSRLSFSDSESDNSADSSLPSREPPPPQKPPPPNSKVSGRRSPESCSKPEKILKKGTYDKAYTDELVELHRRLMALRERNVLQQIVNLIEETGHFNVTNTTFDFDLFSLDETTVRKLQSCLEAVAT
Assay: MLLT1 degradation assay in MV4-11 cells (JESS chemiluminescent detection), three concentrations, 24 h
Type: cell-based
Conditions: with respect to DMSO control
Summary of the method: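 Read-out is % MLLT1 degradation versus DMSO, from band peak areas on a JESS chemiluminescent system. Cells (MV4-11) were exposed for 24 h at 37° C to three compound levels, 10, 100 and 1000 nM, in 0.1% DMSO.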

| SMILES | MLLT1% Degradation @ 0.01 μM | MLLT1% Degradation @ 0.1 μM | MLLT1% Degradation @ 1 μM |
| --- | --- | --- | --- |
| CN1CCC[C@@H]1c1cc2cnc(NC(=O)c3ccc(N4CCC(OCC5CCN(c6cccc7c6C(=O)N(C6CCC(=O)NC6=O)C7=O)CC5)CC4)cc3)cc2[nH]1 (stereo partly drawn) [Example 151, 4-(4-((1-(2-(2,6-dioxopiperidin-3-yl)-1,3-dioxoisoindolin-4-yl)piperidin-4-yl)methoxy)piperidin-1-yl)-N-(2-((R)-1-methylpyrrolidin-2-yl)-1H-pyrrolo[3,2-c]pyridin-6-yl)benzamide] | C (Category C: 25% ≤ C < 50% degradation) | B (Category B: 50% ≤ B < 75% degradation) | A (Category A: A ≥ 75% degradation) |
| CN1CCC[C@@H]1c1cc2cnc(NC(=O)N3CCC(CCC#Cc4cccc5c4CN(C4CCC(=O)NC4=O)C5=O)CC3)cc2[nH]1 (stereo partly drawn) [Example 1, 4-(4-(2-(2,6-dioxopiperidin-3-yl)-1-oxoisoindolin-4-yl)but-3-yn-1-yl)-N-(2-((R)-1-methylpyrrolidin-2-yl)-1H-pyrrolo[3,2-c]pyridin-6-yl)piperidine-1-carboxamide] | C (Category C: 25% ≤ C < 50% degradation) | C (Category C: 25% ≤ C < 50% degradation) | C (Category C: 25% ≤ C < 50% degradation) |
| CN1CCC[C@@H]1c1cc2cnc(NC(=O)c3cccc(NCC4CCN(c5cccc6c5C(=O)N(C5CCC(=O)NC5=O)C6=O)CC4)c3)cc2[nH]1 (stereo partly drawn) [Example 46, 3-(((1-(2-(2,6-dioxopiperidin-3-yl)-1,3-dioxoisoindolin-4-yl)piperidin-4-yl)methyl)amino)-N-(2-((R)-1-methylpyrrolidin-2-yl)-1H-pyrrolo[3,2-c]pyridin-6-yl)benzamide] | – | B (Category B: 50% ≤ B < 75% degradation) | B (Category B: 50% ≤ B < 75% degradation) |
| CN1CCC[C@@H]1c1cc2cnc(NC(=O)c3ccc(N4CCC(c5ccc(-c6cccc7c6CN(C6CCC(=O)NC6=O)C7=O)cc5)CC4)cc3F)cc2[nH]1 (stereo partly drawn) [Example 218, 4-(4-(4-(2-(2,6-dioxopiperidin-3-yl)-1-oxoisoindolin-4-yl)phenyl)piperidin-1-yl)-2-fluoro-N-(2-((R)-1-methylpyrrolidin-2-yl)-1H-pyrrolo[3,2-c]pyridin-6-yl)benzamide] | C (Category C: 25% ≤ C < 50% degradation) | A (Category A: A ≥ 75% degradation) | B (Category B: 50% ≤ B < 75% degradation) |
| CCN1CCC[C@@H]1c1cc2cnc(NC(=O)c3ccc(N4CCC(CC#Cc5cccc6c5CN(C5CCC(=O)NC5=O)C6=O)CC4)nc3)cc2[nH]1 (stereo partly drawn) [Example 73, 6-(4-(3-(2-(2,6-dioxopiperidin-3-yl)-1-oxoisoindolin-4-yl)prop-2-yn-1-yl)piperidin-1-yl)-N-(2-((R)-1-ethylpyrrolidin-2-yl)-1H-pyrrolo[3,2-c]pyridin-6-yl)nicotinamide] | B (Category B: 50% ≤ B < 75% degradation) | A (Category A: A ≥ 75% degradation) | B (Category B: 50% ≤ B < 75% degradation) |
| CN1CCC[C@@H]1c1cc2cnc(NC(=O)c3ccc(N4CCN(CC5CCN(c6ccc(C(=O)N[C@H]7CCC(=O)NC7=O)nc6)CC5)CC4)cc3)cc2[nH]1 [Example 181, N—((S)-2,6-dioxopiperidin-3-yl)-5-(4-((4-(4-((2-((R)-1-methylpyrrolidin-2-yl)-1H-pyrrolo[3,2-c]pyridin-6-yl)carbamoyl)phenyl)piperazin-1-yl)methyl)piperidin-1-yl)picolinamide] | D (Category D: D < 25% degradation) | C (Category C: 25% ≤ C < 50% degradation) | B (Category B: 50% ≤ B < 75% degradation) |
| CN1CCC[C@@H]1c1cc2cnc(NC(=O)c3ccc(N4CCC(C5CCN(c6cccc7c6C(=O)N(C6CCC(=O)NC6=O)C7=O)CC5)CC4)nc3)cc2[nH]1 (stereo partly drawn) [Example 152, 6-(1′-(2-(2,6-dioxopiperidin-3-yl)-1,3-dioxoisoindolin-4-yl)-[4,4′-bipiperidin]-1-yl)-N-(2-((R)-1-methylpyrrolidin-2-yl)-1H-pyrrolo[3,2-c]pyridin-6-yl)nicotinamide] | D (Category D: D < 25% degradation) | B (Category B: 50% ≤ B < 75% degradation) | A (Category A: A ≥ 75% degradation) |
| Cc1cc(OCCC2CCN(c3cccc4c3CN(C3CCC(=O)NC3=O)C4=O)CC2)ccc1C(=O)Nc1cc2[nH]c([C@H]3CCCN3C)cc2cn1 (stereo partly drawn) [Example 204, 4-(2-(1-(2-(2,6-dioxopiperidin-3-yl)-1-oxoisoindolin-4-yl)piperidin-4-yl)ethoxy)-2-methyl-N-(2-((R)-1-methylpyrrolidin-2-yl)-1H-pyrrolo[3,2-c]pyridin-6-yl)benzamide] | C (Category C: 25% ≤ C < 50% degradation) | B (Category B: 50% ≤ B < 75% degradation) | B (Category B: 50% ≤ B < 75% degradation) |
| CN1CCC[C@@H]1c1cc2cnc(NC(=O)c3ccc(CCCCC#Cc4cccc5c4CN(C4CCC(=O)NC4=O)C5=O)nc3)cc2[nH]1 (stereo partly drawn) [Example 10, 6-(6-(2-(2,6-dioxopiperidin-3-yl)-1-oxoisoindolin-4-yl)hex-5-yn-1-yl)-N-(2-((R)-1-methylpyrrolidin-2-yl)-1H-pyrrolo[3,2-c]pyridin-6-yl) nicotinamide] | A (Category A: A ≥ 75% degradation) | A (Category A: A ≥ 75% degradation) | B (Category B: 50% ≤ B < 75% degradation) |
| C[C@@H]1CN(CC2CCN(c3cccc4c3CN(C3CCC(=O)NC3=O)C4=O)CC2)CCN1c1ccc(C(=O)Nc2cc3[nH]c([C@H]4CCCN4C)cc3cn2)cc1 (relative stereo) [Example 134, 4-((R)-4-((1-(2-((rel-R)-2,6-dioxopiperidin-3-yl)-1-oxoisoindolin-4-yl)piperidin-4-yl)methyl)-2-methylpiperazin-1-yl)-N-(2-((R)-1-methylpyrrolidin-2-yl)-1H-pyrrolo[3,2-c]pyridin-6-yl)benzamide] | B (Category B: 50% ≤ B < 75% degradation) | A (Category A: A ≥ 75% degradation) | A (Category A: A ≥ 75% degradation) |
| CN1CCC[C@@H]1c1cc2cnc(NC(=O)c3cc(F)c(CCCC#Cc4cccc5c4CN(C4CCC(=O)NC4=O)C5=O)c(F)c3)cc2[nH]1 (stereo partly drawn) [Example 84, 4-(5-(2-(2,6-dioxopiperidin-3-yl)-1-oxoisoindolin-4-yl)pent-4-yn-1-yl)-3,5-difluoro-N-(2-((R)-1-methylpyrrolidin-2-yl)-1H-pyrrolo[3,2-c]pyridin-6-yl)benzamide] | B (Category B: 50% ≤ B < 75% degradation) | A (Category A: A ≥ 75% degradation) | A (Category A: A ≥ 75% degradation) |
| CN1CCC[C@@H]1c1cc2cnc(NC(=O)CCCC3CCCN(c4cccc5c4C(=O)N(C4CCC(=O)NC4=O)C5=O)C3)cc2[nH]1 (stereo partly drawn) [Example 44, 4-(1-(2-(2,6-dioxopiperidin-3-yl)-1,3-dioxoisoindolin-4-yl)piperidin-3-yl)-N-(2-((R)-1-methylpyrrolidin-2-yl)-1H-pyrrolo[3,2-c]pyridin-6-yl)butanamide] | – | C (Category C: 25% ≤ C < 50% degradation) | C (Category C: 25% ≤ C < 50% degradation) |
| CN1CCC[C@@H]1c1[nH]c2cc(NC(=O)c3ccc(CCCC4CCN(c5cccc6c5CN([C@H]5CCC(=O)NC5=O)C6=O)CC4)cc3)ncc2c1Cl [Example 233, N-(3-chloro-2-((R)-1-methylpyrrolidin-2-yl)-1H-pyrrolo[3,2-c]pyridin-6-yl)-4-(3-(1-(2-((S)-2,6-dioxopiperidin-3-yl)-1-oxoisoindolin-4-yl)piperidin-4-yl)propyl)benzamide] | A (Category A: A ≥ 75% degradation) | A (Category A: A ≥ 75% degradation) | A (Category A: A ≥ 75% degradation) |
| CN1CCC[C@@H]1c1cc2cnc(NC(=O)c3ccc(CCCC#Cc4cccc(N5CCC(=O)NC5=O)n4)cc3)cc2[nH]1 [Example 63, (R)-4-(5-(6-(2,4-dioxotetrahydropyrimidin-1(2H)-yl)pyridin-2-yl)pent-4-yn-1-yl)-N-(2-(1-methylpyrrolidin-2-yl)-1H-pyrrolo[3,2-c]pyridin-6-yl)benzamide] | D (Category D: D < 25% degradation) | D (Category D: D < 25% degradation) | C (Category C: 25% ≤ C < 50% degradation) |
| CN1CCC[C@@H]1c1cc2cnc(NC(=O)c3ccc(N4CCC(OCC5CCN(c6cccc7c6CN(C6CCC(=O)NC6=O)C7=O)CC5)CC4)cc3)cc2[nH]1 (stereo partly drawn) [Example 146, 4-(4-((1-(2-(2,6-dioxopiperidin-3-yl)-1-oxoisoindolin-4-yl)piperidin-4-yl)methoxy)piperidin-1-yl)-N-(2-((R)-1-methylpyrrolidin-2-yl)-1H-pyrrolo[3,2-c]pyridin-6-yl)benzamide] | B (Category B: 50% ≤ B < 75% degradation) | B (Category B: 50% ≤ B < 75% degradation) | B (Category B: 50% ≤ B < 75% degradation) |
